From the supplement of paper PMC10307832

Legend:
Assay in all cases: relative viability (nuclei count vs DMSO), 5 days (fraction); higher = more cells survive
[1] = tested on: NCI-H596
In short: (§1)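 Values are medians from duplicate plates. Each reflects relative viability, defined as the nuclei count of treated wells over that of vehicle wells. Lung cancer cell lines in 1536-well plates were pin-tool dosed one day after seeding with one drug alone or with a fixed anchor-drug dose plus five library-drug doses (not always all listed) in √10 steps, then fixed, stained and imaged at 4× after 5 days.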

[2] = tested on: NCI-H1623
In short: as §1

[3] = tested on: NCI-H1666
In short: as §1

[4] = tested on: NCI-H661
In short: as §1

[5] = tested on: NCI-H1944
In short: as §1

[6] = tested on: SK-LU-1
In short: as §1

[7] = tested on: PC-14
In short: as §1

[8] = tested on: EBC-1
In short: as §1

[9] = tested on: IA-LM
In short: as §1

[10] = tested on: Calu-6
In short: as §1

[11] = tested on: NCI-H1299
In short: as §1

[12] = tested on: NCI-H1703
In short: as §1

[13] = tested on: NCI-H1648
In short: as §1

[14] = tested on: A549
In short: as §1

Cc1csc(=NC2CCCCC2)n1/N=C/c1ccc(O)c(O)c1O [MIM1] + CCNC(=O)c1noc(-c2cc(C(C)C)c(O)cc2O)c1-c1ccc(CN2CCOCC2)cc1 [Luminespib] (partner 0.01 µM)
relative viability ([1]; first compound 0.2 µM): 1.03 | relative viability ([1]; first compound 0.6325 µM): 0.879 | relative viability ([1]; first compound 2 µM): 0.939 | relative viability ([1]; first compound 6.325 µM): 0.918 | relative viability ([1]; first compound 20 µM): 0.486 | relative viability ([2]; first compound 0.2 µM): 0.522 | relative viability ([2]; first compound 0.6325 µM): 0.472 | relative viability ([2]; first compound 2 µM): 0.437 | relative viability ([2]; first compound 6.325 µM): 0.446 | relative viability ([2]; first compound 20 µM): 0.404 | relative viability ([3]; first compound 0.2 µM): 1.02 | relative viability ([3]; first compound 0.6325 µM): 1.13 | relative viability ([3]; first compound 2 µM): 1.02 | relative viability ([3]; first compound 6.325 µM): 0.884 | relative viability ([3]; first compound 20 µM): 0.767 | relative viability ([4]; first compound 0.2 µM): 0.92 | relative viability ([4]; first compound 0.6325 µM): 0.928 | relative viability ([4]; first compound 2 µM): 0.86 | relative viability ([4]; first compound 6.325 µM): 0.576 | relative viability ([4]; first compound 20 µM): 0.269 | relative viability ([5]; first compound 0.2 µM): 0.632 | relative viability ([5]; first compound 0.6325 µM): 0.823 | relative viability ([5]; first compound 2 µM): 0.466 | relative viability ([5]; first compound 6.325 µM): 0.517 | relative viability ([5]; first compound 20 µM): 0.568 | relative viability ([6]; first compound 0.2 µM): 0.178 | relative viability ([6]; first compound 0.6325 µM): 0.21 | relative viability ([6]; first compound 2 µM): 0.181 | relative viability ([6]; first compound 6.325 µM): 0.196 | relative viability ([6]; first compound 20 µM): 0.227 | relative viability ([7]; first compound 0.2 µM): 0.177 | relative viability ([7]; first compound 0.6325 µM): 0.137 | relative viability ([7]; first compound 2 µM): 0.17 | relative viability ([7]; first compound 6.325 µM): 0.115 | relative viability ([7]; first compound 20 µM): 0.144

Cc1csc(=NC2CCCCC2)n1/N=C/c1ccc(O)c(O)c1O [MIM1] + Cc1nc(Nc2ncc(C(=O)Nc3c(C)cccc3Cl)s2)cc(N2CCN(CCO)CC2)n1 [Dasatinib] (partner 0.075 µM)
relative viability ([1]; first compound 0.2 µM): 0.646 | relative viability ([1]; first compound 0.6325 µM): 0.651 | relative viability ([1]; first compound 2 µM): 0.546 | relative viability ([1]; first compound 6.325 µM): 0.61 | relative viability ([1]; first compound 20 µM): 0.597 | relative viability ([2]; first compound 0.2 µM): 0.594 | relative viability ([2]; first compound 0.6325 µM): 0.476 | relative viability ([2]; first compound 2 µM): 0.498 | relative viability ([2]; first compound 6.325 µM): 0.536 | relative viability ([2]; first compound 20 µM): 0.299 | relative viability ([3]; first compound 0.2 µM): 0.788 | relative viability ([3]; first compound 0.6325 µM): 0.852 | relative viability ([3]; first compound 2 µM): 0.711 | relative viability ([3]; first compound 6.325 µM): 0.528 | relative viability ([3]; first compound 20 µM): 0.41 | relative viability ([4]; first compound 0.2 µM): 0.997 | relative viability ([4]; first compound 0.6325 µM): 0.866 | relative viability ([4]; first compound 2 µM): 0.87 | relative viability ([4]; first compound 6.325 µM): 0.406 | relative viability ([4]; first compound 20 µM): 0.224 | relative viability ([5]; first compound 0.2 µM): 0.214 | relative viability ([5]; first compound 0.6325 µM): 0.204 | relative viability ([5]; first compound 2 µM): 0.21 | relative viability ([5]; first compound 6.325 µM): 0.191 | relative viability ([5]; first compound 20 µM): 0.176 | relative viability ([6]; first compound 0.2 µM): 0.155 | relative viability ([6]; first compound 0.6325 µM): 0.19 | relative viability ([6]; first compound 2 µM): 0.189 | relative viability ([6]; first compound 6.325 µM): 0.166 | relative viability ([6]; first compound 20 µM): 0.235 | relative viability ([7]; first compound 0.2 µM): 0.301 | relative viability ([7]; first compound 0.6325 µM): 0.27 | relative viability ([7]; first compound 2 µM): 0.171 | relative viability ([7]; first compound 6.325 µM): 0.233 | relative viability ([7]; first compound 20 µM): 0.0786

Cc1csc(=NC2CCCCC2)n1/N=C/c1ccc(O)c(O)c1O [MIM1] + O=C(c1cc(Cc2n[nH]c(=O)c3ccccc23)ccc1F)N1CCN(C(=O)C2CC2)CC1 [Olaparib] (partner 8 µM)
relative viability ([1]; first compound 0.2 µM): 0.741 | relative viability ([1]; first compound 0.6325 µM): 0.73 | relative viability ([1]; first compound 2 µM): 0.694 | relative viability ([1]; first compound 6.325 µM): 0.626 | relative viability ([1]; first compound 20 µM): 0.491 | relative viability ([8]; first compound 0.2 µM): 0.559 | relative viability ([8]; first compound 0.6325 µM): 0.742 | relative viability ([8]; first compound 2 µM): 0.673 | relative viability ([8]; first compound 6.325 µM): 0.422 | relative viability ([8]; first compound 20 µM): 0.338 | relative viability ([3]; first compound 0.2 µM): 0.71 | relative viability ([3]; first compound 0.6325 µM): 0.739 | relative viability ([3]; first compound 2 µM): 0.665 | relative viability ([3]; first compound 6.325 µM): 0.72 | relative viability ([3]; first compound 20 µM): 0.707 | relative viability ([4]; first compound 0.2 µM): 0.696 | relative viability ([4]; first compound 0.6325 µM): 0.715 | relative viability ([4]; first compound 2 µM): 0.778 | relative viability ([4]; first compound 6.325 µM): 0.499 | relative viability ([4]; first compound 20 µM): 0.316 | relative viability ([9]; first compound 0.2 µM): 0.947 | relative viability ([9]; first compound 0.6325 µM): 0.854 | relative viability ([9]; first compound 2 µM): 0.829 | relative viability ([9]; first compound 6.325 µM): 0.518 | relative viability ([9]; first compound 20 µM): 0.192 | relative viability ([10]; first compound 0.6325 µM): 0.563 | relative viability ([10]; first compound 2 µM): 0.614 | relative viability ([10]; first compound 6.325 µM): 0.288 | relative viability ([10]; first compound 20 µM): 0.152 | relative viability ([11]; first compound 0.2 µM): 0.942 | relative viability ([11]; first compound 0.6325 µM): 0.954 | relative viability ([11]; first compound 2 µM): 1.03 | relative viability ([11]; first compound 6.325 µM): 0.928 | relative viability ([11]; first compound 20 µM): 0.728 | relative viability ([5]; first compound 0.2 µM): 0.405 | relative viability ([5]; first compound 0.6325 µM): 0.422 | relative viability ([5]; first compound 2 µM): 0.352 | relative viability ([5]; first compound 6.325 µM): 0.32 | relative viability ([5]; first compound 20 µM): 0.131 | relative viability ([6]; first compound 0.2 µM): 0.447 | relative viability ([6]; first compound 0.6325 µM): 0.559 | relative viability ([6]; first compound 2 µM): 0.575 | relative viability ([6]; first compound 6.325 µM): 0.281 | relative viability ([6]; first compound 20 µM): 0.299 | relative viability ([12]; first compound 0.2 µM): 0.54 | relative viability ([12]; first compound 0.6325 µM): 0.738 | relative viability ([12]; first compound 2 µM): 0.509 | relative viability ([12]; first compound 6.325 µM): 0.369 | relative viability ([12]; first compound 20 µM): 0.0913 | relative viability ([7]; first compound 0.2 µM): 0.276 | relative viability ([7]; first compound 0.6325 µM): 0.283 | relative viability ([7]; first compound 2 µM): 0.228 | relative viability ([7]; first compound 6.325 µM): 0.232 | relative viability ([7]; first compound 20 µM): 0.0784 | relative viability ([13]; first compound 0.2 µM): 1 | relative viability ([13]; first compound 0.6325 µM): 1.03 | relative viability ([13]; first compound 2 µM): 0.697 | relative viability ([13]; first compound 6.325 µM): 0.611 | relative viability ([13]; first compound 20 µM): 0.298 | relative viability ([14]; first compound 0.2 µM): 0.277 | relative viability ([14]; first compound 0.6325 µM): 0.282 | relative viability ([14]; first compound 2 µM): 0.304 | relative viability ([14]; first compound 6.325 µM): 0.181 | relative viability ([14]; first compound 20 µM): 0.0693
